# Assay results taken from PubChem BioAssay (NCI).
#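 Each compound was tested at five concentrations against cells in 96-well plates for 48 hours. GI50 = concentration required for 50% inhibition of growth. TGI marks complete inhibition of growth.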 Where a SMILES comes first, the peptide text is derived from it. The star is where a group is joined. Boc = CC(C)(C)OC(=O)*
# Key:
# Experiment in all cases: growth of human tumour cells (NCI), 48 h
# EKVX NSCLC = test system: EKVX NSCLC
# 786-0 renal = test system: 786-0 renal
# ACHN renal = test system: ACHN renal
# A549 NSCLC = test system: A549 NSCLC
# MDA-MB-435 = test system: MDA-MB-435
# SK-MEL-28 melanoma = test system: SK-MEL-28 melanoma
# CAKI-1 renal = test system: CAKI-1 renal
# MDA-N = test system: MDA-N
# NCI-H226 lung = test system: NCI-H226 lung
# K-562 leukemia = test system: K-562 leukemia
# HOP-92 NSCLC = test system: HOP-92 NSCLC
Structure (SMILES),TGI (EKVX NSCLC) [µM],TGI (786-0 renal) [µM],TGI (ACHN renal) [µM],TGI (A549 NSCLC) [µM],TGI (MDA-MB-435) [µM],TGI (SK-MEL-28 melanoma) [µM],TGI (CAKI-1 renal) [µM],TGI (MDA-N) [µM],TGI (NCI-H226 lung) [µM],TGI (K-562 leukemia) [µM],TGI (HOP-92 NSCLC) [µM],GI50 (K-562 leukemia) [µM],GI50 (EKVX NSCLC) [µM],GI50 (ACHN renal) [µM],GI50 (A549 NSCLC) [µM],GI50 (MDA-MB-435) [µM],GI50 (NCI-H226 lung) [µM]
O=C(/C=C/c1ccsc1)c1ccsc1,> 100,47.4,42.6,> 100,42.4,89.3,41.4,49.7,39,,,,,,,,
C=CCNC(=S)/N=C/c1c(O)c2ccccc2oc1=O,> 100,> 100,> 100,> 100,,> 100,82.6,,> 100,> 100,> 100,,,,,,
O=[N+]([O-])/C(C(Cl)=C(Cl)Cl)=C(\Nc1cccc2cccnc12)SCc1ccccc1,49.1,47.3,64.4,88.4,37.7,33.9,43.3,> 100,48.6,56.9,,,,,,,
Cc1c(C(=O)CSc2nc3ccccc3c(=O)n2-c2ccccc2)c(=O)n(-c2ccccc2)n1C,,38.9,> 100,> 100,,> 100,0.729,,69.2,,95.8,,,,,,
Brc1cccc(Nc2nc(-c3cccs3)nc3ccc(Br)cc23)c1,98.1,> 100,91,> 100,37.2,> 100,68.5,,> 100,> 100,> 100,,,,,,
Cc1nn(C(=O)Cc2ccccc2)c2c1C(c1ccc(O)cc1)SC(N)=N2 (stereo not given),> 100,> 100,> 100,> 100,> 100,> 100,> 100,> 100,> 100,> 100,,,,,,,
COc1cc([N+](=O)[O-])c(OC)cc1-c1nc2sc(Cl)cn2c1/C=N/Nc1ccccn1,> 50,,16.9,> 50,> 50,,,,48.8,> 50,,> 50,> 50,8.43,> 50,> 50,12.1
N=S(c1ccccc1)c1ccccc1[N+](=O)[O-] (stereo not given),38.5,30.3,31,32.1,,,28.8,,25.4,45,,,,,,,
COc1ccc2nc3cc(Cl)ccc3c(NCCCNCCCNc3c4ccc(Cl)cc4nc4ccc(OC)cc34)c2c1,0.89,,0.174,0.165,,,,0.173,0.177,15.2,0.347,,,,,,
Cc1c(S(=O)(=O)/N=C(\N)Nc2ccc(Cl)cc2)sc2ccc(Cl)cc12,33.4,33.7,32.2,46.8,,48.5,,47.1,44,> 100,42.2,,,,,,
O=C1c2cc3c(cc2CC1Br)CCC3 (stereo not given),28.9,3.47,13.1,38.7,4.23,8.56,3.23,3.48,11.4,7.04,,,,,,,
CN(C)C(=S)S,> 100,> 100,> 100,> 100,> 100,> 100,> 100,,> 100,> 100,> 100,,,,,,
O=C(NCCN1CCOCC1)c1ccc2cc(C(=O)N3CC(CCl)c4ccc([N+](=O)[O-])cc43)[nH]c2c1 (stereo not given),86.3,38.4,45.2,26.1,49.2,> 100,52.4,,> 100,> 100,38.4,,,,,,
CC(C)(C)OC(=O)NCC(=O)NCC(=O)NCC(=O)NCC(=O)O (Boc-GGGG-OH),> 100,> 100,> 100,> 100,> 100,> 100,> 100,,,> 100,> 100,,,,,,
COCOc1ccc(Cn2c(=O)n(C)c(=O)c3c2ncn3C)cc1[N+](=O)[O-],> 100,> 100,> 100,> 100,,> 100,,,> 100,> 100,,,,,,,
c1ccc2c(c1)NC(C1OC3CCCN3C1C1Nc3ccccc3S1)S2 (stereo not given),> 100,> 100,> 100,> 100,> 100,> 100,> 100,,,> 100,> 100,,,,,,
O=C1CN2C(c3ccccc3)=NN(c3ccc([N+](=O)[O-])cc3)C2(c2ccccc2)c2cc(Cl)ccc2N1CC1CC1 (stereo not given),> 100,> 100,> 100,> 100,> 100,> 100,> 100,,> 100,> 100,> 100,,,,,,
